According to patent US7074789B2, “Kinase inhibitors” (Amgen Inc., priority 1999, dated 2006):

How the values were obtained:
Format in all cases: biochemical
PDGFRB = biological target: T1, PDGFRB (Homo sapiens, UniProt P09619); test: Kinase inhibition assay (33P transfer), PDGFRB; conditions: read-out: PDGFRB-1
T1 construct: Kinases are expressed as either kinase domains or full length constructs; made in house

ErbB2 = biological target: T2, ErbB2 (Homo sapiens, UniProt P04626); test: Kinase inhibition assay (33P transfer), ErbB2; conditions: read-out: ErbB2-2
T2 construct: Kinases are expressed as either kinase domains or full length constructs; made in house
Summary of the method: (§1)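 Steps: coat wells with poly(Glu,Tyr) 4:1 or poly(Arg,Ser) 3:1; add purified kinase, [33P]ATP and inhibitor; incubate; wash with 0.5% phosphoric acid; add liquid scintillant; count. IC50 corresponds to half-maximal reduction of bound 33P.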

Zap-70 = biological target: T3, Zap-70 (Homo sapiens, UniProt P43403); test: Kinase inhibition assay (33P transfer), Zap-70; conditions: Table 3, class symbols; read-out: Zap-1
T3 construct: Kinases are expressed as either kinase domains or full length constructs; made in house
T3 sequence (P43403 1-619): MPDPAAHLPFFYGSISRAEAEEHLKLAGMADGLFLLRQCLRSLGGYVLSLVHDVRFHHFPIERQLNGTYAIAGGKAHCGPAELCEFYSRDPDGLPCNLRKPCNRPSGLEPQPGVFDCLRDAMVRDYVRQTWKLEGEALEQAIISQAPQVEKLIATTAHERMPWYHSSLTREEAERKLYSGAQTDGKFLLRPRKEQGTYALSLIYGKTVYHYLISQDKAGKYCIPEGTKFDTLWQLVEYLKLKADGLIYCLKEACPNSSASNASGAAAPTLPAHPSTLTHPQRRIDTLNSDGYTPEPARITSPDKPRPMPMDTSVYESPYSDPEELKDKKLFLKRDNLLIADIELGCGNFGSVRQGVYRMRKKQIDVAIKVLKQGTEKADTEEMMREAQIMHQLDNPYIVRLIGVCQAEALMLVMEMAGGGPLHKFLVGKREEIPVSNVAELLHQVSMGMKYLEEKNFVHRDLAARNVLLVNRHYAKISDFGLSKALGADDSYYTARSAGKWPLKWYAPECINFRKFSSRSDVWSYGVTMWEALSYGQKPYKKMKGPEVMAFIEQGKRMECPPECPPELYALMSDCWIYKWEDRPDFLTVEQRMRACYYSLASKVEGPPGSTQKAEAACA
Summary of the method: (§2)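 Filterless plate radiometric format: immobilized poly(Glu,Tyr) 4:1 or poly(Arg,Ser) 3:1, 33P-labelled ATP, tagged recombinant kinase (some with regulatory partners). Incorporated label counted after phosphoric acid wash.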

IGFR-1 = biological target: T4, IGFR-1 (Homo sapiens, UniProt P08069); test: Kinase inhibition assay (33P transfer), IGFR-1; conditions: Table 2, class symbols A-E
T4 construct: Kinases are expressed as either kinase domains or full length constructs; made in house

AKT = biological target: T5, AKT (Homo sapiens, UniProt Q9Y243); test: Kinase inhibition assay (33P transfer), AKT; conditions: Table 2, class symbols A-E; read-out: AKT3-1
T5 construct: Kinases are expressed as either kinase domains or full length constructs; made in house
Summary of the method: as §2

Kdr = biological target: T6, Kdr (Homo sapiens, UniProt P35968); test: Kinase inhibition assay (33P transfer), Kdr; conditions: Table 3, class symbols; read-out: KDR-1
T6 construct: Kinases are expressed as either kinase domains or full length constructs; made in house
Summary of the method: as §2

Lck = biological target: T7, Lck (Homo sapiens, UniProt P06239); test: Kinase inhibition assay (33P transfer), Lck; conditions: Table 3, class symbols; read-out: Lck-1
T7 construct: Kinases are expressed as either kinase domains or full length constructs; made in house
Summary of the method: as §2

Itk = biological target: T8, Itk (Homo sapiens, UniProt Q08881); test: Kinase inhibition assay (33P transfer), Itk; conditions: Table 3, class symbols; read-out: Itk-1
T8 construct: Kinases are expressed as either kinase domains or full length constructs; made in house
T8 sequence (Q08881 1-620): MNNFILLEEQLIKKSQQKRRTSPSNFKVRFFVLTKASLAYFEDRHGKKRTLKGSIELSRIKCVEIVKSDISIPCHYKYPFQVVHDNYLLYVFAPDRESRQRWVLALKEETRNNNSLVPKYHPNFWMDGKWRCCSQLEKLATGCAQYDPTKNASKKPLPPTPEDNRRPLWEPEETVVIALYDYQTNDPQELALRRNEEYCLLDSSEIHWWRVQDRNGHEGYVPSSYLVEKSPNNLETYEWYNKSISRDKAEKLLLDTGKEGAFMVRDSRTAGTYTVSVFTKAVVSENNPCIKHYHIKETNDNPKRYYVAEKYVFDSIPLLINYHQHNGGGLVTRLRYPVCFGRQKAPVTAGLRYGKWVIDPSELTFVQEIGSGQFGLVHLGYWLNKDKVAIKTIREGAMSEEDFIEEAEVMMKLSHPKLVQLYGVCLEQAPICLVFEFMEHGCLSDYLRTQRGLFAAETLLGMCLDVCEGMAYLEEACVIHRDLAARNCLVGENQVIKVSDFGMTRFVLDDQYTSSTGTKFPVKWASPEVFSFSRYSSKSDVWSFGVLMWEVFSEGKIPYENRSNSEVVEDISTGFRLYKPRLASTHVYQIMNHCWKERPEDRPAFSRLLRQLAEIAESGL
Summary of the method: as §1

c-Met = biological target: T9, c-Met (Homo sapiens, UniProt P08581); test: Kinase inhibition assay (33P transfer), c-Met; conditions: Table 2, class symbols A-E; read-out: Met-1
T9 construct: Kinases are expressed as either kinase domains or full length constructs; made in house
Summary of the method: as §1

EGFR = biological target: T10, EGFR (Homo sapiens, UniProt P00533); test: Kinase inhibition assay (33P transfer), EGFR; conditions: Table 2, class symbols A-E; read-out: EGFR-1
T10 construct: Kinases are expressed as either kinase domains or full length constructs; made in house
Summary of the method: as §1

T1 sequence (P09619 33-1106, species assumed): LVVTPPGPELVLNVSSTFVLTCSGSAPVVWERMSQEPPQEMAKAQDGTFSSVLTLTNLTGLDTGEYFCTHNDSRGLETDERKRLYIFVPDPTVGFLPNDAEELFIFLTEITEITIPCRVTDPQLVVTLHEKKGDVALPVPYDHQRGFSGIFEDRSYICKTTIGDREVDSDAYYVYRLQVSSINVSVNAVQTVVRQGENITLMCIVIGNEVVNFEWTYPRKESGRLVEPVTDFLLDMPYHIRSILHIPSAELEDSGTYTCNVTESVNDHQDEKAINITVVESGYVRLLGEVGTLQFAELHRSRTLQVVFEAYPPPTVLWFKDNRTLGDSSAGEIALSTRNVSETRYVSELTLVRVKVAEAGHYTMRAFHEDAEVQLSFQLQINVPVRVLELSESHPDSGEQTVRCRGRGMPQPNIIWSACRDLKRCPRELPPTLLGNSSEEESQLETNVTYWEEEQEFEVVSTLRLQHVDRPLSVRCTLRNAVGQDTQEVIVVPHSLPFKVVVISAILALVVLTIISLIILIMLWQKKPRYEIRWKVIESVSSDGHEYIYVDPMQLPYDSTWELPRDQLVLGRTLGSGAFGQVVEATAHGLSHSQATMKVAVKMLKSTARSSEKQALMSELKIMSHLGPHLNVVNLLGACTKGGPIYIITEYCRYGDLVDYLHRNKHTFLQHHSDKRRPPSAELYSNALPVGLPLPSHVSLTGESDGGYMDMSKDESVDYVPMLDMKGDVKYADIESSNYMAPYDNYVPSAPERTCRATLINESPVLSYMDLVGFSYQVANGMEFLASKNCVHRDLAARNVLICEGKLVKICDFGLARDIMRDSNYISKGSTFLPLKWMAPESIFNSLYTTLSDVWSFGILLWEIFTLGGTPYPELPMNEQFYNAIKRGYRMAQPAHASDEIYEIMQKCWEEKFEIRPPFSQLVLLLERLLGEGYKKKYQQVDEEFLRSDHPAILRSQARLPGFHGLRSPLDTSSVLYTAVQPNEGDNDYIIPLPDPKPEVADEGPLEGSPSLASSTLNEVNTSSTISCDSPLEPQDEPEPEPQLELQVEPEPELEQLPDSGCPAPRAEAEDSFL
T10 sequence (P00533 25-1210, species assumed): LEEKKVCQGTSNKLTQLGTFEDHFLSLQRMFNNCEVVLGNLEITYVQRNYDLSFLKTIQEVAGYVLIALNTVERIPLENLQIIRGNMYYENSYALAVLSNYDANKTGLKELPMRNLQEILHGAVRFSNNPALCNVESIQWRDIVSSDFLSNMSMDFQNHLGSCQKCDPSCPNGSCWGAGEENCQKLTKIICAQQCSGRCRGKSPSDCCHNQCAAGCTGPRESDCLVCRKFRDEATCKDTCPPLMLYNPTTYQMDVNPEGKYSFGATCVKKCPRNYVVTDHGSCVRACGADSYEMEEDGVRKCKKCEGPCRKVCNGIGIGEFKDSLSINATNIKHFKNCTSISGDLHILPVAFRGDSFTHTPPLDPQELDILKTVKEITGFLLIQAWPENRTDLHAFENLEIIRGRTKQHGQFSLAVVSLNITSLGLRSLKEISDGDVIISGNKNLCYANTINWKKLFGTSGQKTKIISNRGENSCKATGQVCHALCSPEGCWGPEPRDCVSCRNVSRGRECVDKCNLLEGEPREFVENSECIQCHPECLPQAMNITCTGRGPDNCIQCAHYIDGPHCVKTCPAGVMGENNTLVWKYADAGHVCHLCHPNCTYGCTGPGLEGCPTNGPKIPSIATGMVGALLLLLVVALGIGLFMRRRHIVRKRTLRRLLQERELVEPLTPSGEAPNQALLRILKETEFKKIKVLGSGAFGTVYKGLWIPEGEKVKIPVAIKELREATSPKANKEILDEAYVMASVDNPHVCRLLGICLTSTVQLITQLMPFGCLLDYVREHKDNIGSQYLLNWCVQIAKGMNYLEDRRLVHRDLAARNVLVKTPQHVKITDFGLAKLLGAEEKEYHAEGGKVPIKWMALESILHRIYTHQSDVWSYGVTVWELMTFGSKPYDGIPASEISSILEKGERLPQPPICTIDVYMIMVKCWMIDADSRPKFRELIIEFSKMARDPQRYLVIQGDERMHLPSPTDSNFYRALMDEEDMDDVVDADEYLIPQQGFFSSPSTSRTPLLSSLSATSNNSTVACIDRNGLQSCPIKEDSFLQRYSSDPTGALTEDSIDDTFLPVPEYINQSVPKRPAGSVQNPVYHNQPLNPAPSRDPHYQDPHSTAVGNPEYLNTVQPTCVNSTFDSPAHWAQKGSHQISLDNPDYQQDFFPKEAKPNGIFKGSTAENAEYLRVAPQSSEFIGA
T7 sequence (P06239 whole entry, species assumed, the tested form may be a part): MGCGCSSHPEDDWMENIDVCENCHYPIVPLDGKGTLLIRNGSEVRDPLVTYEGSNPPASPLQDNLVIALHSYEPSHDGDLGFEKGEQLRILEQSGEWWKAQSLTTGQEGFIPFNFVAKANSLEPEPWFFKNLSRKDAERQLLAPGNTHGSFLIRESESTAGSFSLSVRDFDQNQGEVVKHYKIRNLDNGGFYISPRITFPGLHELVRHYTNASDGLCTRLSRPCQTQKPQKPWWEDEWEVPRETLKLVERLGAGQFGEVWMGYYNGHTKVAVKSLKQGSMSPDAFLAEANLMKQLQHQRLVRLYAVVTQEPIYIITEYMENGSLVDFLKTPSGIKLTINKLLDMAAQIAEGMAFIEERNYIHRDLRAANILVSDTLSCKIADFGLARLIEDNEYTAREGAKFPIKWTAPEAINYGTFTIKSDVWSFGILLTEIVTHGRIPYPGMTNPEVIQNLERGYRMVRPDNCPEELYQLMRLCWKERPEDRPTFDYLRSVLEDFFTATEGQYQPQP
T4 sequence (P08069 31-1367): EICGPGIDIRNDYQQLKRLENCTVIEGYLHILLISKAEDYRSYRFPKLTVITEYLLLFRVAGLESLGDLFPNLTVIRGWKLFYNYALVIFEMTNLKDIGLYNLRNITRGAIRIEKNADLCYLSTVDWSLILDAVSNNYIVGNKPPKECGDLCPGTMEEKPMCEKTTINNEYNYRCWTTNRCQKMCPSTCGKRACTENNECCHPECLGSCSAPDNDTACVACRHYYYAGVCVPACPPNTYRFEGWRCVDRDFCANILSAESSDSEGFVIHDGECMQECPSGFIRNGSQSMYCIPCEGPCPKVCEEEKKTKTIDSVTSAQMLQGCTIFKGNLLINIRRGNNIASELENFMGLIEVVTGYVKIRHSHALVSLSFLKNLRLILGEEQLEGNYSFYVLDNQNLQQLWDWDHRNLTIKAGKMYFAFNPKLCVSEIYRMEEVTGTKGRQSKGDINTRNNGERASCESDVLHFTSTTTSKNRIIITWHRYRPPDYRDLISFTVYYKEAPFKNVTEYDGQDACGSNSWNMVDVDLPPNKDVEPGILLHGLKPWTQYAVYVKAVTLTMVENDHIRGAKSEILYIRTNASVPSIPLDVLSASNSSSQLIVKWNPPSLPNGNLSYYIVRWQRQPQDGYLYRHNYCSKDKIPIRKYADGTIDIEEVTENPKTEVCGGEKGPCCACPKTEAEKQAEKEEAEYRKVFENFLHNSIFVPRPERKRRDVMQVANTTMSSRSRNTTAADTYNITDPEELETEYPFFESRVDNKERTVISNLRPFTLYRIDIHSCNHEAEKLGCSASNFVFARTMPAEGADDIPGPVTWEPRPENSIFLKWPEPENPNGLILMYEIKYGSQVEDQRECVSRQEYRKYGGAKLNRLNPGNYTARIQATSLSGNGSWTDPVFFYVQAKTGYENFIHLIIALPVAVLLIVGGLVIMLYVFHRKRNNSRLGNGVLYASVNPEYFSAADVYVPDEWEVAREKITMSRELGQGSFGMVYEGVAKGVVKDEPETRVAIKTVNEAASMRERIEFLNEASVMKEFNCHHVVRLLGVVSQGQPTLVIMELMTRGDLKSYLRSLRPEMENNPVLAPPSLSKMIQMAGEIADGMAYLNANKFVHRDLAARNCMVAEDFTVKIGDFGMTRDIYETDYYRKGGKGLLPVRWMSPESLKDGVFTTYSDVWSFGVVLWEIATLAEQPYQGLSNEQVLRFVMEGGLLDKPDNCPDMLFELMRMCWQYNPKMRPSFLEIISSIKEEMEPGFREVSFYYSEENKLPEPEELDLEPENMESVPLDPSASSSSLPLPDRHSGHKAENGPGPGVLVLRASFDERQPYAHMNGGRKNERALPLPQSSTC
T5 sequence (Q9Y243 whole entry, the tested form may be a part): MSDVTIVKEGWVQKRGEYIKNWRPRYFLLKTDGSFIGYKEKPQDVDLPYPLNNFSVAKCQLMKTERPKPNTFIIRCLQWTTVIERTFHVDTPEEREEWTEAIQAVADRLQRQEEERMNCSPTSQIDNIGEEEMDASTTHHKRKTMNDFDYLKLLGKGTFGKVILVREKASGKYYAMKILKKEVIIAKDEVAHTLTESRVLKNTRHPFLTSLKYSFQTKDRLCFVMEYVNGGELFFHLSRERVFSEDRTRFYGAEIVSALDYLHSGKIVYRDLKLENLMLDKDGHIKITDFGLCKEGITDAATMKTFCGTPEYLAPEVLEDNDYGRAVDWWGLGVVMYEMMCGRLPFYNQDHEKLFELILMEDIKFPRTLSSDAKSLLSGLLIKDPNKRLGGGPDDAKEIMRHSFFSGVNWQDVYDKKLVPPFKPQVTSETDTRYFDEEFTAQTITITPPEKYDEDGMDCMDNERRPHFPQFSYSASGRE

Row | IC50 (PDGFRB) | IC50 (ErbB2) | IC50 (Zap-70) | IC50 (IGFR-1) | IC50 (AKT) | IC50 (Kdr) | IC50 (Lck) | IC50 (Itk) | IC50 (c-Met) | IC50 (EGFR) | Compound
1 | < 1 µM | 6.02 to 8.78 µM | 6.02 to 8.78 µM | > 11.3 µM | > 11.3 µM | < 1 µM | > 11.3 µM | > 11.3 µM | 1 to 6.02 µM | 1000 to 6020 nM | O=C(O)Cc1cccc(Nc2ncnc(-c3cccnc3Nc3ccccc3)n2)c1 [Compound 1094]
2 | < 0.968 µM | 0.968 to 5.81 µM | > 10.9 µM | > 10.9 µM | > 10.9 µM | < 0.968 µM | < 0.968 µM | > 10.9 µM | > 10.9 µM | 968 to 5810 nM | COc1cc(Nc2ncnc(Nc3ccc(OCCO)cc3)n2)cc(OC)c1OC [Compound 636]
3 | > 10.6 µM | > 10.6 µM | > 10.6 µM | > 10.6 µM | > 10.6 µM | > 10.6 µM | > 10.6 µM | > 10.6 µM | > 10.6 µM | > 10600 nM | COc1cc(CNc2ncnc(Nc3cc(-c4ccco4)n[nH]3)n2)cc(OC)c1OC [Compound 997]
4 | < 1.11 µM | 1.11 to 6.64 µM | > 12.4 µM | > 12.4 µM | > 12.4 µM | 1.11 to 6.64 µM | 1.11 to 6.64 µM | 9.68 to 12.4 µM | 1.11 to 6.64 µM | < 1110 nM | CCOc1cccc(Nc2ncnc(N3CCCc4cc(C)ccc43)n2)c1 [Compound 892]
5 | < 1.04 µM | < 1.04 µM | 1.04 to 6.21 µM | < 1.04 µM | < 1.04 µM | < 1.04 µM | 1.04 to 6.21 µM | < 1.04 µM | < 1.04 µM | < 1040 nM | c1cc(Nc2ncnc(Nc3cc(-c4ccco4)[nH]n3)n2)cc(-c2cnco2)c1 [Compound 824]
6 | < 1.02 µM | < 1.02 µM | > 11.5 µM | > 11.5 µM | > 11.5 µM | 1.02 to 6.11 µM | 1.02 to 6.11 µM | 1.02 to 6.11 µM | < 1.02 µM | < 1020 nM | CN(c1cccc(Cl)c1)c1ncnc(Nc2cccc(Cn3ccnn3)c2)n1 [Compound 678]
7 | > 10.8 µM | > 10.8 µM | > 10.8 µM | < 0.958 µM | > 10.8 µM | > 10.8 µM | > 10.8 µM | > 10.8 µM | < 0.958 µM | > 10800 nM | COc1cc(C)c(Nc2ncnc(Nc3cc(-c4ccc(C)cc4)n[nH]3)n2)cc1OC [Compound 1127]
8 | 0.942 to 5.65 µM | > 10.6 µM | > 10.6 µM | > 10.6 µM | > 10.6 µM | > 10.6 µM | > 10.6 µM | > 10.6 µM | > 10.6 µM | 5650 to 8250 nM | COC(=O)c1ccc(-c2cc(Nc3ncnc(NCCN4CCOCC4)n3)[nH]n2)cc1 [Compound 808]
9 | 4.54 to 6.62 µM | 6.62 to 8.51 µM | 6.62 to 8.51 µM | > 8.51 µM | > 8.51 µM | 0.757 to 4.54 µM | > 8.51 µM | > 8.51 µM | 6.62 to 8.51 µM | > 8510 nM | COc1cc(Nc2ncnc(-c3cccnc3NCc3ccccc3OC(F)(F)F)n2)cc(OC)c1OC [Compound 842]
10 | 0.817 to 4.9 µM | < 0.817 µM | > 9.19 µM | 4.9 to 7.15 µM | > 9.19 µM | 0.817 to 4.9 µM | 7.15 to 9.19 µM | 7.15 to 9.19 µM | < 0.817 µM | < 817 nM | CN(c1ccc2c(cnn2Cc2ccccc2)c1)c1ncnc(Nc2cccc(Cc3nnn[nH]3)c2)n1 [Compound 671]
11 | 0.945 to 5.67 µM | 0.945 to 5.67 µM | > 10.6 µM | 5.67 to 8.26 µM | 8.26 to 10.6 µM | 5.67 to 8.26 µM | 0.945 to 5.67 µM | 8.26 to 10.6 µM | 0.945 to 5.67 µM | < 945 nM | COc1cccc(Nc2ncnc(Nc3ccc4c(cnn4Cc4ccccc4)c3)n2)c1 [Compound 904]
12 | > 12.7 µM | > 12.7 µM | > 12.7 µM | < 1.13 µM | > 12.7 µM | 1.13 to 6.79 µM | 1.13 to 6.79 µM | 1.13 to 6.79 µM | 1.13 to 6.79 µM | 1130 to 6790 nM | C#Cc1cccc(Nc2ncnc(Nc3cc(-c4ccccc4)n[nH]3)n2)c1 [Compound 1008]
13 | > 9.88 µM | > 9.88 µM | > 9.88 µM | > 9.88 µM | > 9.88 µM | > 9.88 µM | > 9.88 µM | > 9.88 µM | > 9.88 µM | > 9880 nM | COc1cc(Nc2ncnc(-c3cccnc3Nc3cccc(C#N)c3)n2)cc(OC)c1OC [Compound 828]
14 | 1.01 to 6.05 µM | 1.01 to 6.05 µM | > 11.4 µM | < 1.01 µM | 1.01 to 6.05 µM | 1.01 to 6.05 µM | 1.01 to 6.05 µM | 6.05 to 8.83 µM | < 1.01 µM | 1010 to 6050 nM | c1ccc(-c2cc(Nc3ncnc(Nc4cccc(-c5cnco5)c4)n3)[nH]n2)cc1 [Compound 1010]
15 | 6.04 to 8.81 µM | 6.04 to 8.81 µM | > 11.3 µM | > 11.3 µM | > 11.3 µM | 1.01 to 6.04 µM | 1.01 to 6.04 µM | > 11.3 µM | 6.04 to 8.81 µM | < 1010 nM | COc1cc(Nc2ncnc(N(CCO)c3ccccc3)n2)cc(OC)c1OC [Compound 637]
16 | < 0.914 µM | < 0.914 µM | > 10.3 µM | > 10.3 µM | > 10.3 µM | < 0.914 µM | > 10.3 µM | > 10.3 µM | > 10.3 µM | < 914 nM | O=C(O)c1cccc(Nc2ncnc(-n3c(NCc4ccccc4)nc4ccccc43)n2)c1 [Compound 1069]
17 | 1.11 to 6.66 µM | 9.72 to 12.5 µM | > 12.5 µM | 9.72 to 12.5 µM | > 12.5 µM | 9.72 to 12.5 µM | > 12.5 µM | > 12.5 µM | > 12.5 µM | < 1110 nM | Cc1ccc(Cl)cc1Nc1ncnc(Nc2cc(Cl)ccc2C)n1 [Compound 638]
18 | 0.975 to 5.85 µM | 0.975 to 5.85 µM | > 11 µM | 0.975 to 5.85 µM | > 11 µM | 0.975 to 5.85 µM | > 11 µM | 0.975 to 5.85 µM | 0.975 to 5.85 µM | 975 to 5850 nM | COC(=O)c1ccc(-c2cc(Nc3ncnc(NC4=NC(=O)CS4)n3)[nH]n2)cc1 [Compound 881]
19 | > 12.3 µM | 6.57 to 9.58 µM | > 12.3 µM | > 12.3 µM | > 12.3 µM | > 12.3 µM | 1.09 to 6.57 µM | > 12.3 µM | > 12.3 µM | 1090 to 6570 nM | COc1ccc(Nc2ncnc(N(C)[C@H](C)c3ccccc3)n2)cc1OC [Compound 803]
20 | < 0.935 µM | 5.61 to 8.18 µM | > 10.5 µM | > 10.5 µM | > 10.5 µM | < 0.935 µM | 0.935 to 5.61 µM | > 10.5 µM | < 0.935 µM | < 935 nM | COc1cc(Nc2ncnc(N3CCCc4cc(Cl)ccc43)n2)cc(OC)c1OC [Compound 639]
